The source of these data is patent publication US20130158035A1, “[…] COMPOUNDS” (Brigham Young University, priority 2010, published 2013).

The first experiment concerns MDCK cells. Nature of the experiment: HGF-induced epithelial-mesenchymal transition / migration of MDCK cells on transwell filters (crystal violet densitometry). Type of experiment: cell-based. To be noted: Canis lupus familiaris, MDCK, 24 h, Table 3, 10 μM compound, then HGF, percentage like untreated controls (unstimulated cells = maximal effect, HGF only = nil). The procedure: MDCK cells were seeded at confluency into the wells of a transwell filter in DMEM with 10% fetal bovine serum. Cells were cultured for 24 hours. Test compounds, dissolved in DMSO, were added to each test well to a 10 μM final concentration, and then hepatocyte growth factor (HGF) was then added. The MDCK cells were cultured for 24 hours. Concurrently, controls treated with and without HGF and with no test compounds were also prepared.
After post-HGF addition culturing, transwell filters were prepared by repeated washing using ice cold PBS. The cells were then fixed with paraformaldehyde (3.7%) on ice for 15 minutes to the filters. After fixation, the transwell filters were washed repeatedly with PBS followed by staining with crystal violet for 15 minutes. The transwell filters were washed again with distilled water.
The upper surface of the transwell filters were swabbed using a cotton-tipped probe. The filters were photographed using a gel documentation system. Densitometry measurements were made on the test samples and compared with control samples.
In general, inhibition refers to how much of the control response was suppressed. The low end stands for little suppression, the high end for strong suppression. With `COc1cc(CNc2ccc(C)c(Cl)c2)cc(Br)c1OC` [Compound A-19], the inhibition at 10 µM was > 5%.
For `NC(=O)c1ccccc1/N=C/c1cccc(Cl)c1` [Compound A-9], at 10 µM the inhibition was 96.4%.

Staying with this experiment, now noted: Canis lupus familiaris, MDCK, 24 h, Table 4, 10 μM compound, then HGF, percentage like untreated controls (unstimulated cells = maximal effect, HGF only = nil).
`Cc1cc(C)nc(NC(=O)c2cccc([N+](=O)[O-])c2)c1` [Compound B-7] showed an inhibition at 10 µM of 52.5%.
`Cc1nc(NC(=O)c2cccc([N+](=O)[O-])c2)ccc1I` [Compound B-3] yielded an inhibition at 10 µM of 95.9%.
With `COc1ccc(C(=O)Nc2cccc(C)n2)cc1[N+](=O)[O-]` [Compound B-11], the inhibition at 10 µM is < 5%.
On the same count and under the same terms, the same measure for `Cc1nc(NC(=O)c2ccc(N3CCCC3)c([N+](=O)[O-])c2)ccc1I` [Compound B-5]: 44%.

Still in this experiment, the particulars now being: Canis lupus familiaris, MDCK, 24 h, Table 5, 10 μM compound, then HGF, percentage like untreated controls (unstimulated cells = maximal effect, HGF only = nil).
Consider `O=C(Nc1cccc(C(=O)c2ccccc2)c1)c1ccc(-c2ccccc2)cc1` [Compound B-18], for which the inhibition at 10 µM turned out to be 93.8%.
The same measure, in the same setting: the result for `Cc1cc(NC(=O)c2cccc([N+](=O)[O-])c2C)c(C)cc1I` [Compound B-32] reads 36.1%; that for `Cc1cc(NC(=O)c2cccc([N+](=O)[O-])c2)ccc1I` [Compound B-31], 53.1%; that for `CCC(=O)Nc1ccc(NC(=O)c2cc(OC)c(OC)c(OC)c2)cc1` [Compound B-23], 29.4%.
On the same count and under the same terms, the same measure for `CCCCOc1ccc(C(=O)Nc2ccc(N3CCCC3=O)cc2)cc1` [Compound B-30]: 81.1%.
Same read-out and setting: the same measure for `Cc1cccc(NC(=O)c2ccc(-c3ccccc3)cc2)c1` [Compound B-17]: 30.2%.

Staying with this experiment, now noted: Table 1; 10 μM compound, then HGF, 24 hours; percentage like untreated controls (unstimulated cells = maximal effect, HGF only = nil).
For the compound `COc1cccc(C2CC(=O)Nc3cc4c(cc32)CCC4)c1OC` (centres unmarked) [Compound 26], the “Assay Value” was determined as 90.4%.
Still for that read-out and setting: the same measure for `COc1cc(C2CC(=O)Nc3cc4c(cc32)OCCO4)cc(OC)c1OC` (centres unmarked) [Compound 3]: 92.4%.
The same measure, in the same setting: the same measure for `COc1cccc(C2CC(=O)Nc3cc4c(cc32)CCC4)c1` (centres unmarked) [Compound 29]: 69.3%; for `CCOc1ccc(Br)cc1C1CC(=O)Nc2cc3c(cc21)OCCO3` (centres unmarked) [Compound 9]: 64.9%; for `COc1ccc(Cl)cc1C1CC(=O)Nc2cc3c(cc21)OCCO3` (centres unmarked) [Compound 10]: 62.9%.
Same read-out and setting: the result for `CCOc1cc(C2CC(=O)Nc3cc4c(cc32)OCCO4)ccc1O` (centres unmarked) [Compound 18] reads 15.9%.

The same experiment, now with this note: Table 2; 10 μM compound, then HGF, 24 hours; percentage like untreated controls (unstimulated cells = maximal effect, HGF only = nil).
In the case of `COc1cc2c(cc1OC)C(c1ccc(Cl)cc1Cl)CC(=O)N2` (centres unmarked) [Compound 49], the “Assay Value” is <5%.
Regarding `COc1cccc(C2CC(=O)Nc3cc4c(cc32)OCCO4)c1OC` (centres unmarked) [Compound 46], the “Assay Value” is <5%.
Regarding `CC(C)c1ccc(C2CC(=O)Nc3cc4c(cc32)OCO4)cc1` (centres unmarked) [Compound 71], the “Assay Value” is given as <5%.
On the same count and under the same terms, the result for `COc1cc2c(cc1OC)C(c1ccccc1OCc1ccccc1)CC(=O)N2` (centres unmarked) [Compound 42] reads <5%; that for `Cc1ccccc1C1CC(=O)Nc2cc3c(cc21)OCCO3` (centres unmarked) [Compound 45], <5%.
Still for that read-out and setting: the result for `O=C1CC(c2ccc(Cl)cc2Cl)c2cc3c(cc2N1)CCC3` (centres unmarked) [Compound 97] reads <5%.
For `COc1ccccc1C1CC(=O)Nc2cc3c(cc21)OCCO3` (centres unmarked) [Compound 38], the “Assay Value” was <5%.
Regarding `CC(C)c1ccc(C2CC(=O)Nc3cc4c(cc32)OCCO4)cc1` (centres unmarked) [Compound 79], the “Assay Value” is <5%.
As for `O=C1CC(c2ccccc2C(F)(F)F)c2cc3c(cc2N1)CCC3` (centres unmarked) [Compound 94], the “Assay Value” is recorded as <5%.
For the compound `O=C1CC(c2ccccc2C(F)(F)F)c2cc3c(cc2N1)OCO3` (centres unmarked) [Compound 87], the “Assay Value” is reported as <5%.
Take `O=C1CC(c2cc3c(cc2[N+](=O)[O-])OCO3)c2cc3c(cc2N1)CCC3` (centres unmarked) [Compound 93]: the “Assay Value” is <5%.
The same measure, in the same setting: the same measure for `O=C1CC(c2ccc(OC(F)(F)F)cc2)c2cc3c(cc2N1)OCCO3` (centres unmarked) [Compound 78]: <5%.
The same measure, in the same setting: the same measure for `O=C1CC(c2ccccc2)c2cc3c(cc2N1)OCO3` (centres unmarked) [Compound 86]: <5%.

The same experiment, now with this note: Table 3; 10 μM compound, then HGF, 24 hours; percentage like untreated controls (unstimulated cells = maximal effect, HGF only = nil).
For `COc1cc(CNc2ccc(C)c(Cl)c2)cc(Cl)c1OC` [Compound A-26], the “Assay Value” was <5%.
